{"source": "paper PMC9353555", "about": "“Hemoclot Thrombin Inhibitor Assay and Expected Peak-Trough Levels of Dabigatran: A Multicenter Study” (Frontiers in Cardiovascular Medicine, 2022)", "key": {"[1]": {"test": "Hemoclot thrombin inhibitor (HTI) assay of plasma dabigatran concentration", "format": "in vivo, human", "settings": "for HTI-peak: peak (1.0–3.0 h post dose); for HTI-trough: trough (>10 h after previous dose)", "description": "(§1) For detecting pharmacodynamics (PD) parameters, the sampling times were 0, 2, 8, 12 h after dabigatran administration respectively. In patients’ population, plasma sample obtained longer than 10 h after the previous dose was considered for trough concentration; average 2.0 h (range: 1.0–3.0 h) post dose was considered for peak concentration. The reference detection range refers to plasma dabigatran concentrations between the 2.5th and 97.5th percentiles of all values determined by HPLC-MS/MS.\n(§2) Blood samples were collected via 2.7 ml sodium citrate tubes, then centrifuged for 15 min at 2,500 g at room-temperature. The plasma samples were stored at –70°C within 6 months until analysis.\n(§3) Pharmacodynamic assessment was performed at a centralized facility in Peking University First Hospital. The HTI, PT, and APTT were measured on Sysmex CS-2100i (Sysmex, Kobe, Japan). PT and APTT were tested using Coagulation Method Assay Kits (Thromborel-S® and Actin®, Marburg, Germany). The normal reference range for the PT and APTT assays used in this study are 10.1–12.6 s for PT and 26.9–37.6 s for APTT. Concentration detection is divided into two standard curves, one is suitable for normal and slightly high concentration range, another one is suitable for low concentration range. When the concentration is below 120 ng/ml, the low concentration standard curve is switched to obtain a more accurate concentration value. […] PD assessment was all performed in our hospital."}, "[2]": {"test": "Plasma dabigatran concentration and pharmacokinetics by HPLC-MS/MS", "format": "in vivo, human", "settings": "healthy subjects, single dose 150 mg; for AUC(0-t): 150 mg", "description": "The venous blood samples were collected 0 h and post-dose at 16–19 time points in 3.0 ml EDTA-K2 tubes and centrifuged at 4°C for 10 min at 3,000 g. The plasma samples were stored at –80°C until analysis.\nThe total anti-thrombin effect from dabigatran etexilate is a result of dabigatran (alone) and dabigatran acylglucuronides. An assay for total dabigatran (the sum of free dabigatran and the contribution from dabigatran acylglucuronides) in plasma is developed, validated and applied ([21], [22]). Thus, dabigatran concentrations were determined by validated HPLC-MS/MS assays at Shimadzu 30 series, API 6500 (Applied Biosystems, Inc., American). The standard calibration curves with good linearity were built for dabigatran within the concentration range of 1.0–300.0 ng/mL, and the lower limit of quantitation (LOQ) was 1.0 ng/mL. The precision (% CV), intra-batch accuracy and inter-batch accuracy were within 6.2–9.2, 90.3–104.3, and 94.6–103.8%, respectively. PK parameters were analyzed by non-compartmental methods using Phoenix Win-Non-lin 7.0 (A Certara™ Company, Princeton, NJ, United States). Cmax (Maximum concentration) and Tmax (the time to Cmax) were obtained from the observed data, while terminal half-life (t1/2), plasma concentration vs. time from 0 to the last measurable time point (AUC0–t) were calculated.\nas §1"}, "APTT": {"system": "APTT", "test": "Activated partial thromboplastin (APTT) coagulation assay after dabigatran", "format": "in vivo, human", "settings": "for APTT-peak / APTT-0 h / APTT-trough: NVAF patients, 110 mg bid, target range 26.9–37.6 s; for APTT-peak: peak (1.0–3.0 h post dose); for APTT-0 h: pre-dose; for APTT-trough: trough (>10 h after previous dose)", "description": "as §1, §2, §3"}, "PT": {"system": "PT", "test": "Prothrombin time (PT) coagulation assay after dabigatran", "format": "in vivo, human", "settings": "for PT-peak / PT-0 h / PT-trough: NVAF patients, 110 mg bid, target range 10.1–12.6 s; for PT-peak: peak (1.0–3.0 h post dose); for PT-0 h: pre-dose; for PT-trough: trough (>10 h after previous dose)", "description": "as §1, §2, §3"}, "[3]": {"set-up": "method as in PMID 23718677", "settings": "dabigatran 150 mg, American population; cited from earlier work"}, "[4]": {"settings": "183 patients, 110 mg bid, HTI assay, about 500 blood samples"}, "[5]": {"settings": "NVAF patients, 110 mg bid, HTI-derived concentration"}, "[6]": {"settings": "NVAF patients, 110 mg bid, HTI-derived concentration, listed as dabigatran"}}, "note": "Where two headings read alike, the source gives them in different places.", "data": [{"smiles": "[H]/N=C(/N)c1ccc(NCc2nc3cc(C(=O)N(CCC(=O)O)c4ccccn4)ccc3n2C)cc1", "note": "[Dabigatran]", "values": [{"measurement": "expected peak levels range", "setting": "[1]; [4]", "result": "95 to 196", "unit": "ng/mL"}, {"measurement": "expected trough levels range", "setting": "[1]; [4]", "result": "36 to 92", "unit": "ng/mL"}, {"measurement": "HTI-peak", "setting": "[1]; [5]", "result": "145.57 ± 50.16", "unit": "ng/mL"}, {"measurement": "HTI-peak", "setting": "[1]; [6]", "result": 145.57, "unit": "ng/mL"}, {"measurement": "HTI-0 h", "setting": "[1]; NVAF patients, 110 mg bid, pre-dose, HTI-derived concentration", "result": "4.06 ± 2.92", "unit": "ng/mL"}, {"measurement": "HTI-trough", "setting": "[1]; [5]", "result": "63.74 ± 27.95", "unit": "ng/mL"}, {"measurement": "HTI-trough", "setting": "[1]; [6]", "result": 63.74, "unit": "ng/mL"}, {"measurement": "HTI–2 h", "setting": "[1]; healthy subjects, single dose 150 mg, 2 h, HTI-derived concentration", "result": "88.89 ± 79.08", "unit": "ng/mL"}, {"measurement": "HTI–8 h", "setting": "[1]; healthy subjects, single dose 150 mg, 8 h, HTI-derived concentration", "result": "61.91 ± 27.46", "unit": "ng/mL"}, {"measurement": "HTI–12 h", "setting": "[1]; healthy subjects, single dose 150 mg, 12 h, HTI-derived concentration", "result": "40.00 ± 16.63", "unit": "ng/mL"}, {"measurement": "concentration at 0 h", "setting": "[1]; human, plasma, oral, NVAF patients, 110 mg bid, pre-dose, HTI-derived concentration", "result": 4.06, "unit": "ng/mL"}, {"measurement": "concentration at 0 h", "setting": "[1]; human, plasma, oral, healthy subjects, single dose 150 mg, 0 h (pre-dose), HTI-derived concentration", "result": "2.99 ± 2.37", "unit": "ng/mL"}, {"measurement": "concentration at 2 h", "setting": "[1]; human, plasma, oral, healthy subjects, single dose 150 mg, 2 h, HTI-derived concentration", "result": 88.9, "unit": "ng/mL"}, {"measurement": "concentration at 8 h", "setting": "[1]; human, plasma, oral, healthy subjects, single dose 150 mg, 8 h, HTI-derived concentration", "result": 61.9, "unit": "ng/mL"}, {"measurement": "concentration at 12 h", "setting": "[1]; human, plasma, oral, healthy subjects, single dose 150 mg, 12 h, HTI-derived concentration", "result": 40, "unit": "ng/mL"}, {"measurement": "C–2 h", "setting": "[2]; 2 h, HPLC-MS/MS, mean ± SD", "result": "85.51 ± 73.77", "unit": "ng/mL"}, {"measurement": "C–8 h", "setting": "[2]; 8 h, HPLC-MS/MS, mean ± SD", "result": "57.60 ± 23.46", "unit": "ng/mL"}, {"measurement": "C–12 h", "setting": "[2]; 12 h, HPLC-MS/MS, mean ± SD", "result": "36.40 ± 3.15", "unit": "ng/mL"}, {"measurement": "Cmax", "setting": "[2]; mean ± SD", "result": "139.99 ± 55.61", "unit": "ng/mL"}, {"measurement": "reference detection range", "setting": "[2]; 2.5th to 97.5th percentiles of plasma concentrations by HPLC-MS/MS", "result": "33 to 159", "unit": "ng/mL"}, {"measurement": "AUC(0-t)", "setting": "[2]; human, plasma, oral, mean ± SD, read-out: AUC0–12", "result": "1290 ± 442", "unit": "ng·h/mL"}, {"measurement": "AUC(0-t)", "setting": "[2]; human, plasma, oral, mean ± SD, read-out: AUC0–t", "result": "1250 ± 442", "unit": "ng·h/mL"}, {"measurement": "concentration at 0 h", "setting": "[2]; human, plasma, oral, 0 h (pre-dose), HPLC-MS/MS, mean ± SD, read-out: C–0 h", "result": 0, "unit": "ng/mL"}, {"measurement": "concentration at 2 h", "setting": "[2]; human, plasma, oral, 2 h, HPLC-MS/MS, mean ± SD, read-out: C–2 h", "result": 85.5, "unit": "ng/mL"}, {"measurement": "concentration at 8 h", "setting": "[2]; human, plasma, oral, 8 h, HPLC-MS/MS, mean ± SD, read-out: C–8 h", "result": 57.6, "unit": "ng/mL"}, {"measurement": "concentration at 12 h", "setting": "[2]; human, plasma, oral, 12 h, HPLC-MS/MS, mean ± SD, read-out: C–12 h", "result": 36.4, "unit": "ng/mL"}, {"measurement": "Tmax", "setting": "[2]; human, plasma, oral, mean ± SD", "result": "3.61 ± 2.09", "unit": "h"}, {"measurement": "half-life", "setting": "[2]; human, plasma, oral, mean ± SD", "result": "8.78 ± 1.33", "unit": "h"}, {"measurement": "APTT-peak", "setting": "APTT", "result": "47.89 ± 4.43", "unit": "s"}, {"measurement": "APTT-peak", "setting": "APTT; listed as dabigatran", "result": 47.89, "unit": "s"}, {"measurement": "APTT-0 h", "setting": "APTT", "result": "36.47 ± 8.40", "unit": "s"}, {"measurement": "APTT-0 h", "setting": "APTT; listed as dabigatran", "result": 36.47, "unit": "s"}, {"measurement": "APTT-trough", "setting": "APTT", "result": "39.08 ± 9.74", "unit": "s"}, {"measurement": "APTT-trough", "setting": "APTT; listed as dabigatran", "result": 39.08, "unit": "s"}, {"measurement": "APTT–0 h", "setting": "APTT; healthy subjects, single dose 150 mg, 0 h (pre-dose), reference range 26.9–37.6 s", "result": "27.78 ± 3.50", "unit": "s"}, {"measurement": "APTT–2 h", "setting": "APTT; healthy subjects, single dose 150 mg, 2 h, reference range 26.9–37.6 s", "result": "39.69 ± 10.69", "unit": "s"}, {"measurement": "APTT–8 h", "setting": "APTT; healthy subjects, single dose 150 mg, 8 h, reference range 26.9–37.6 s", "result": "38.52 ± 6.00", "unit": "s"}, {"measurement": "APTT–12 h", "setting": "APTT; healthy subjects, single dose 150 mg, 12 h, reference range 26.9–37.6 s", "result": "35.22 ± 5.37", "unit": "s"}, {"measurement": "PT-peak", "setting": "PT", "result": "14.04 ± 3.50", "unit": "s"}, {"measurement": "PT-peak", "setting": "PT; listed as dabigatran", "result": 14.04, "unit": "s"}, {"measurement": "PT-0 h", "setting": "PT", "result": "15.58 ± 5.90", "unit": "s"}, {"measurement": "PT-0 h", "setting": "PT; listed as dabigatran", "result": 15.58, "unit": "s"}, {"measurement": "PT-trough", "setting": "PT", "result": "13.79 ± 6.15", "unit": "s"}, {"measurement": "PT-trough", "setting": "PT; listed as dabigatran", "result": 13.79, "unit": "s"}, {"measurement": "PT–0 h", "setting": "PT; healthy subjects, single dose 150 mg, 0 h (pre-dose), reference range 10.1–12.6 s", "result": "11.74 ± 1.88", "unit": "s"}, {"measurement": "PT–2 h", "setting": "PT; healthy subjects, single dose 150 mg, 2 h, reference range 10.1–12.6 s", "result": "12.83 ± 1.58", "unit": "s"}, {"measurement": "PT–8 h", "setting": "PT; healthy subjects, single dose 150 mg, 8 h, reference range 10.1–12.6 s", "result": "12.44 ± 1.31", "unit": "s"}, {"measurement": "PT–12 h", "setting": "PT; healthy subjects, single dose 150 mg, 12 h, reference range 10.1–12.6 s", "result": "11.97 ± 0.92", "unit": "s"}, {"measurement": "reference detection range", "setting": "[3]", "result": "27 to 411", "unit": "ng/mL"}]}]}
